Results on three compounds are retold here after PMC10577883, “Design and Optimization of Novel Competitive, Non-peptidic, SARS-CoV-2 M^pro Inhibitors” (ACS Medicinal Chemistry Letters, 2023).

Where “and” joins values, the source holds several entries; their conditions need not be identical. Equal values may be shown once. Read-outs that look alike come from different tables or passages of the source. Some results are limits rather than exact numbers.

Series [1] has as its target SARS-CoV-2 Mpro (3CLpro) (Severe acute respiratory syndrome coronavirus 2, UniProt P0DTD1). Briefly: SARS-CoV-2 recombinant protease enzymatic assay (FRET). Type of series: biochemical.
The test system of series [2] is SARS-CoV-2-Nluc reporter virus. The series is described as follows: microbe, parasite or virus in culture. Type of series: cell-based. The following applies: for EC50: Severe acute respiratory syndrome coronavirus 2, VeroE6/TMPRSS2 cells, parentheses denote 95% confidence intervals.
A short description of series [3]: Liver microsome metabolite identification (LC-HRMS). The series is classed as in vitro ADME. The protocol: Figure S15: Stability of 45 in rat liver microsomes (RLM) at 37 °C
Table S17: Stability of 43 in rat liver microsomes (RLM) at 37 °C
Time Response ratio Average RR Rel % ln
Metabolite identification
Procedure for Liver Microsome Metabolite Identification Assay: Test compounds and positive controls were dissolved in 100% DMSO to make 10 mM stock solutions. The 10 mM stock solutions of test and control […]
(1 picture or pasted object on this page, not shown here) […]
compounds were further diluted in potassium phosphate buffer (100 mM, pH 7.4) to 500 μM to ensure that the organic solvent content was < 0.2%. The liver microsome (HLM or MLM) assay was prepared in a 1.5 mL Eppendorf tube with a final volume of […] for duplicate runs. Each reaction contained phosphate buffer (374 μL), liver microsomes (550 μL), and test compound (66 μL of 500 resulting in a final concentration of 30 μM), μM for the […]
test compound. […] Aliquots (100 μL) were removed in […]
MS analysis was performed using full scan from a mass range of 100-700 m/z at 60k resolution with data dependent MS/MS and MSn programs enabled for the top 5 ions detected for each scan. Compounds are detected based on their MS1 precursor ion accurate mass m/z and identified with matching theoretical and observed accurate mass MS1 ions with interpretation of accurate mass MS/MS spectra from expected […]
Background: Microsomes from liver hold many membrane-bound enzymes, among them those of drug oxidation.

A short description of series [4]: in vitro. The following applies: chlorocebus sabaeus.
The nature of series [5]: Rat liver microsome stability assay. The settings on record: 37 °C.
Protocol: Metabolic Stability Assay
(§1) Liver Microsome Stability Assay Protocol
(§2) Human liver microsomes (HLMs, 20 mg/mL), CD-1 mouse liver microsomes (MLMs, 20 mg/mL), Sprague Dawley
(§3) rat liver microsomes (RLMs, 20 mg/mL) were purchased from Xenotech. NADPH was purchased from Sigma-
(§4) Aldrich and prepared in 10 mM stock solutions of distilled H2O (InvitrogenTM UltraPureTM). Verapamil and
(§5) diphenhydramine were both purchased from Sigma-Aldrich and served as positive controls for LM stability assays.
(§6) Test compounds and positive controls were initially dissolved in DMSO to make 10 mM stock solutions. Sample
(§7) solutions were then further diluted in 100% MeCN to 500 μM. Next, the reactions were prepared by mixing human
(§8) or mouse liver microsomes (55 μL) with potassium phosphate buffer (100 mM, 928 μL) in 1.5 mL Eppendorf tubes.
(§9) The test compounds (6.6 μL of 500 μM solution) were subsequently added to the suspensions, and the reaction
(§10) mixtures were incubated at 37 °C for 5 min. Afterward, the liver microsome reactions were initiated with 110 μL
(§11) of 10 mM NADPH and further incubated at 37 °C for the designated time course of the study. This procedure
(§12) provided experiments with a final volume of 1100 μL (0.6% organic solvent content) and a final test compound
(§13) concentration of 3 μM. Aliquots (100 μL) were removed from each reaction mixture in duplicate at 0, 5, 10, 15,
(§14) and 30 min time intervals and quenched with 100 μL of cold internal standard solution (ISTD, 2 μM
(§15) 7-ethoxy-d 5-coumarin in MeOH or MeCN). Quenched aliquots were then centrifuged at 12,500 g for 5-10 min, and
(§16) the resulting supernatants were withdrawn and placed in LC-MS vials to be analyzed by LC-MS/MS (Agilent
(§17) G6460C QQQ MS coupled with an Infinity II 1260 HPLC). Each test compound was run in tandem with positive and
(§18) negative control experiments for quality assurance. Positive control reactions were conducted at a final volume
(§19) of 550 μL for a single run of each time point. Lastly, the negative control experiment was conducted with test
(§20) compounds and liver microsomes in the absence of NADPH (150 μL) and analyzed at the 30 min time point.
(§21) Data Analysis. Each data point was analyzed in triplicate using in-between blank washes to avoid carry over and
(§22) to equilibrate the column for the subsequent runs. Averages of these triplicates for individual compounds at each
(§23) time point were then normalized to the data at 0 min, representing 100% test compound remaining or 0%
(§24) metabolism. Half-lives (t 1/2) were calculated by plotting ln of % test compound remaining versus time and
(§25) performing linear regression to determine slope.
(§26) Instrumentation and LC-MS/MS Method Development
(§27) LC-MS/MS analyses were conducted on an Agilent 1260 Infinity II HPLC equipped with an Agilent G6460 triple
(§28) quadrupole mass spectrometer (Agilent Technologies, USA). Reverse-phase HPLC separation for each compound
(§29) m) column maintained at 40 °C. The mobile phase used during analyses consisted of either MeOH-H2O (0.1% FA)
(§30) or MeCN-H2O (0.1% FA) at a flow rate of 0.5 mL/min. Each method was developed in the presence of the internal
(§31) standard (ISTD), 7-ethoxy-d 5-coumarin. Precursor and product ion detection was performed with Agilent Jet
(§32) Stream electrospray positive ionization (ESI+) in multiple reaction monitoring (MRM) mode. All MRM transitions,
(§33) MS conditions were as follows: dwell time of 100 ms; gas flow of 10 L/min; nebulizer pressure of 45 psi; delta EMV
(§34) of 200 V. Lastly, all acquired data was processed using Agilent 6460 Quantitative Analysis software.
A short description of series [6]: Human liver microsome stability assay.
Protocol: Metabolic Stability Assay
as §1, §2, §3, §4, §5, §6, §7, §8, §9, §10, §11, §12, §13, §14, §15, §16, §17, §18, §19, §20, §21, §22, §23, §24, §25, §26, §27, §28, §29, §30, §31, §32, §33, §34
A short description of series [7]: Mouse liver microsome stability assay.
Protocol: Metabolic Stability Assay
as §1, §2, §3, §4, §5, §6, §7, §8, §9, §10, §11, §12, §13, §14, §15, §16, §17, §18, §19, §20, §21, §22, §23, §24, §25, §26, §27, §28, §29, §30, §31, §32, §33, §34
Series [8] can be described thus: in vitro. The following applies: human, microsomes.
Protocol: Metabolic Stability Assay
as §1, §2, §3, §4, §5, §6, §7, §8, §9, §10, §11, §12, §13, §14, §15, §16, §17, §18, §19, §20, §21, §22, §23, §24, §25, §26, §27, §28, §29, §30, §31, §32, §33, §34
Series [9] can be described thus: in vitro. The following applies: CD-1, mouse, microsomes.
Protocol: Metabolic Stability Assay
as §1, §2, §3, §4, §5, §6, §7, §8, §9, §10, §11, §12, §13, §14, §15, §16, §17, §18, §19, §20, §21, §22, §23, §24, §25, §26, §27, §28, §29, §30, §31, §32, §33, §34
Series [10] can be described thus: in vitro. The following applies: Sprague-Dawley, rat, microsomes.
Protocol: Metabolic Stability Assay
as §1, §2, §3, §4, §5, §6, §7, §8, §9, §10, §11, §12, §13, §14, §15, §16, §17, §18, §19, §20, §21, §22, §23, §24, §25, §26, §27, §28, §29, §30, §31, §32, §33, §34
In series [11] the test system is CYP3A. Further details: method as in PMID 37171749. The settings on record: cited from earlier work.

As to `O=c1[nH]cccc1-c1cn(-c2cc(Cl)cc(OCc3ccccc3Cl)c2)c(=O)n(-c2cccnc2)c1=O` [Compound 43], the “IC50 range in words” value in [1] is “single-digit nanomolar range”. Besides, in series [1] (recombinant Mpro, FRET peptide substrate), the IC50 (in general, the concentration needed to halve the response being measured) came out at 8.6 nM. Further, the “EC50 range in words” value in [2] is “sub-micromolar”. Further, the EC50 (commonly the concentration at which the effect is half-maximal) in series [2] was determined as 130 nM. Besides, the “major microsomal metabolite / metabolic route” value in series [3] (liver microsomes, LC-HRMS) is on record as “ether cleavage”. Further, in series [4], the CC50 is > 100000 nM. Also, in series [5] (3 μM, 30 min), the “RLM percentage remaining after 30 min” value was 26.6% and 26.55% and 30.88%. In addition, the “RLM t1/2” value in [5] (3 μM, unit not given) turned out to be 19.8 min. In addition, the “RLM Rel % remaining” value in [5] (5 min) was 80.16%; in [5] (10 min), 63.43%; in series [5] (15 min) it was 57.78%. The share remaining (commonly the share of the starting amount still present when the sample was taken) at 5 min, 3 µM turned out to be 71.1% in series [5] (Sprague-Dawley, rat, microsomes, RLM Rel % remaining, 5 min); 91.6% in [6] (human, microsomes); 22.8% in [7] (CD-1, mouse, microsomes). The amount remaining at 10 min, 3 µM in series [5] (Sprague-Dawley, rat, microsomes, RLM Rel % remaining, 10 min) was determined as 55.3%; in [6] (human, microsomes), 76.9%; in series [7] (CD-1, mouse, microsomes) it was 10.4%. In addition, the share remaining at 0.25 h, 3 µM in series [5] (Sprague-Dawley, rat, microsomes, RLM Rel % remaining, 15 min) came to 43.5%; in series [6] (human, microsomes) it was 70.7%; in [7] (CD-1, mouse, microsomes), 7.53%. In addition, the half-life (as a rule, how long it takes for the measured level to halve) at 3 µM in [5] (Sprague-Dawley, rat, microsomes, RLM t1/2, 3 μM, unit inferred) came to 16.1 min; in [6] (human, microsomes), 27.8 min; in series [7] (CD-1, mouse, microsomes), 3 min. Also, the “HLM percentage remaining after 30 min” value in series [6] (3 μM, 37 °C, 30 min) is 48% and 47.72%. In addition, the “MLM percentage remaining after 30 min” value in series [7] (3 μM, 37 °C, 30 min) is 4.0% and 3.96%.
In the case of `Cn1cc(-c2cc(-c3cc(Cl)c(F)c(OCc4ccccc4Cl)c3)c(=O)n(-c3cccnc3)c2)c(=O)[nH]c1=O` [Compound 4], in series [3], the “major microsomal metabolite / metabolic route” value is listed as “loss of the ortho-chlorobenzyl moiety”. Further, in series [8], the amount remaining at 5 min, 3 µM was 46.1%; the share remaining at 10 min, 3 µM is 22.7%; the share remaining at 0.25 h, 3 µM came to 16.3%. Moreover, in series [8] (HLM t1/2), the half-life at 3 µM amounted to 7.2 min. Also, in series [9], the half-life at 3 µM is 2.4 min; the share remaining at 5 min, 3 µM was found to be 9.41%; the fraction remaining at 10 min, 3 µM came to 5.25%; the fraction remaining at 0.25 h, 3 µM worked out at 2.96%. For the same compound, in series [10], the half-life at 3 µM was found to be 4.8 min; the share remaining at 5 min, 3 µM came out at 63.6%; the amount remaining at 10 min, 3 µM stood at 26.6%; the fraction remaining at 0.25 h, 3 µM was 17.4%.
Regarding `Cn1cnc(Cn2c(=O)[nH]/c(=N\c3cc4cn(C)nc4cc3Cl)n(Cc3cc(F)c(F)cc3F)c2=O)n1` [Compound S-217622, ensitrelvir, reference compound], in [2], the EC50 was 230 nM. Further, in series [11], the CYP3A inhibition entry is on record as “strong CYP3A inhibitor”.
